Test results: ChEMBL document CHEMBL5303304, “EUbOPEN Chemogenomics Library - IncuCyte” (2023)

How the values were obtained:
Type in all cases: toxicity, cell-based
Fibroblast = test: Incucyte cell viability with human fibroblast; conditions: 10 µM, compound concentration 10 uM
U2OS = test: Incucyte cell viability with U2OS; conditions: human, 10 µM, compound concentration 10 uM
HEK-293T = test: Incucyte cell viability with HEK293T; conditions: human, 10 µM, compound concentration 10 uM
Also: unitless GR value; below 1 slowed growth and below 0 cell loss.

Row | SMILES | Growth Rate (Fibroblast; 6 h, replicate number 1) | Growth Rate (Fibroblast; 6 h, replicate number 2) | Growth Rate (Fibroblast; 12 h, replicate number 1) | Growth Rate (Fibroblast; 12 h, replicate number 2) | Growth Rate (Fibroblast; 18 h, replicate number 1) | Growth Rate (Fibroblast; 18 h, replicate number 2) | Growth Rate (Fibroblast; 24 h, replicate number 2) | Growth Rate (U2OS; 6 h, replicate number 2) | Growth Rate (U2OS; 12 h, replicate number 2) | Growth Rate (U2OS; 18 h, replicate number 1) | Growth Rate (U2OS; 18 h, replicate number 2) | Growth Rate (U2OS; 24 h, replicate number 1) | Growth Rate (U2OS; 24 h, replicate number 2) | Growth Rate (HEK-293T; 6 h, replicate number 2) | Growth Rate (HEK-293T; 12 h, replicate number 2) | Growth Rate (HEK-293T; 24 h, replicate number 2) | Growth Rate (Fibroblast; 0 h, replicate number 1) | Growth Rate (U2OS; 0 h, replicate number 1) | Growth Rate (U2OS; 0 h, replicate number 2) | Growth Rate (U2OS; 12 h, replicate number 1) | also measured
1 | Cn1nccc1-c1ccc(Sc2cccc(C3(C(N)=O)CCOCC3)c2)cc1 [PF-4191834] | -0.12 | 0.25 | 0 | 0.52 | -0.01 | 0.45 | 0.46 | 0.8 | 0.79 | 0.94 | 0.88 | 0.76 | 0.93 | -0.28 | -0.18 | 0.15 | – | – | – | – | Growth Rate (Fibroblast; 0 h, replicate number 2): -0.66; Growth Rate (Fibroblast; 24 h, replicate number 1): 0.22; Growth Rate (U2OS; 6 h, replicate number 1): 0.7; Growth Rate (HEK-293T; 0 h, replicate number 1): 0.41; Growth Rate (HEK-293T; 6 h, replicate number 1): -0.02; Growth Rate (HEK-293T; 12 h, replicate number 1): 0.37; Growth Rate (HEK-293T; 18 h, replicate number 1): 0.29; Growth Rate (HEK-293T; 18 h, replicate number 2): 0; Growth Rate (HEK-293T; 24 h, replicate number 1): 0.31
2 | COc1ccc(-c2cc3c(C)nc(N)nc3n([C@H]3CC[C@H](OCCO)CC3)c2=O)cn1 [PF-04691502] | 0.8 | 0.33 | 0.03 | -0.28 | -0.18 | -0.29 | -0.32 | – | – | 0.65 | 0.83 | 0.6 | 0.62 | -0.8 | -0.6 | -0.25 | -1 | -0.97 | – | – | Growth Rate (Fibroblast; 24 h, replicate number 1): -0.23; Growth Rate (HEK-293T; 6 h, replicate number 1): -0.19; Growth Rate (HEK-293T; 12 h, replicate number 1): -0.29; Growth Rate (HEK-293T; 18 h, replicate number 1): -0.17; Growth Rate (HEK-293T; 18 h, replicate number 2): -0.38; Growth Rate (HEK-293T; 24 h, replicate number 1): -0.14
3 | C[C@@H](C(N)=O)[C@H](N)c1nc2cc(C(C)(C)C)ccc2[nH]1 [PF-06305591] | -0.98 | – | -0.52 | – | – | 0.77 | – | – | 0.86 | – | 0.91 | 0.95 | 0.99 | 0.51 | 0.9 | 0.94 | 0.3 | -0.1 | -0.8 | 0.69 | Growth Rate (HEK-293T; 18 h, replicate number 2): 0.91
4 | CNC(=O)c1ccc(C)c(-n2c(C)cc(OCc3ccc(F)cc3F)c(Br)c2=O)c1 [PH-797804] | – | 0.91 | – | 0.99 | – | – | – | 0.54 | 0.75 | – | – | – | – | – | – | – | -0.91 | -0.97 | 0.65 | 0.91 | Growth Rate (HEK-293T; 0 h, replicate number 2): 0.72
5 | CCCCCCCCCCCCCC(=O)O[C@@H]1[C@@H](C)[C@@]2(O)[C@@H](C=C(CO)C[C@]3(O)C(=O)C(C)=C[C@@H]23)[C@@H]2C(C)(C)[C@]12OC(C)=O [PHORBOL MYRISTATE ACETATE] | 0.89 | -1 | -1 | 0.09 | – | 0.85 | 0.78 | – | – | 0.96 | 0.92 | 0.96 | 0.72 | – | – | 0.75 | – | – | -1 | 0.98 | Growth Rate (Fibroblast; 0 h, replicate number 2): -0.74; Growth Rate (HEK-293T; 0 h, replicate number 1): 0.64; Growth Rate (HEK-293T; 0 h, replicate number 2): -0.1; Growth Rate (HEK-293T; 18 h, replicate number 2): 0.99
6 | Cc1noc(C)c1-c1cnc2c(-c3ccc(C(=O)O)cc3)cn([C@@H](C)c3ccccn3)c2c1 [PLX-51107] | – | -0.59 | -0.99 | 0.35 | -0.39 | 0.36 | 0.49 | – | – | – | – | 0.93 | 1 | – | 0.89 | 0.48 | -0.53 | -0.72 | -0.91 | 0.94 | Growth Rate (Fibroblast; 0 h, replicate number 2): -0.82; Growth Rate (Fibroblast; 24 h, replicate number 1): -0.1; Growth Rate (U2OS; 6 h, replicate number 1): 0.16; Growth Rate (HEK-293T; 0 h, replicate number 1): 0.25; Growth Rate (HEK-293T; 18 h, replicate number 2): 0.62; Growth Rate (HEK-293T; 24 h, replicate number 1): 0.93
7 | O=C(N[C@H]1CN2CCC1CC2)c1ccc(Cl)cc1 [PNU-282987] | -0.45 | -0.01 | – | 0.79 | – | 0.85 | 0.81 | 0.78 | – | 0.75 | 0.8 | 0.94 | 0.86 | 0.88 | 0.94 | 1 | – | – | -0.61 | 0.84 | –
8 | CC1(C)CCC[C@]2(C)[C@@H](C=O)C(C=O)=CC[C@@H]12 [POLYGODIAL] | – | -1 | – | 0.42 | -0.77 | 0.83 | 0.73 | 0.73 | 0.57 | – | 0.76 | – | 0.88 | 0.55 | 0.7 | 0.87 | – | 0.45 | -0.79 | – | Growth Rate (Fibroblast; 24 h, replicate number 1): 0.41; Growth Rate (HEK-293T; 6 h, replicate number 1): -0.32; Growth Rate (HEK-293T; 12 h, replicate number 1): 0.22; Growth Rate (HEK-293T; 18 h, replicate number 1): 0.52; Growth Rate (HEK-293T; 18 h, replicate number 2): 0.81; Growth Rate (HEK-293T; 24 h, replicate number 1): 0.8
9 | CC(C)[C@H](CO)Nc1nc(Nc2ccc(C(=O)O)c(Cl)c2)c2ncn(C(C)C)c2n1 [PURVALANOL B] | – | – | – | – | 0.88 | – | – | 0.56 | 0.95 | – | – | – | – | – | – | – | -0.93 | -0.96 | 0.8 | – | Growth Rate (HEK-293T; 18 h, replicate number 1): 0.9; Growth Rate (HEK-293T; 24 h, replicate number 1): 1
10 | C=C[C@H]1C[N@@]2CC[C@H]1C[C@@H]2[C@@H](O)c1ccnc2ccc(OC)cc12 [QUINIDINE] | 0.36 | 0.17 | -1 | 0.9 | – | 1 | 0.74 | -0.07 | 0.65 | 0.93 | 0.73 | 0.96 | 0.83 | 0.85 | – | – | -0.43 | – | -1 | 0.59 | –
11 | c1ccc2nc(N3CCNCC3)ccc2c1 [QUIPAZINE] | 0.27 | 0.04 | -0.91 | 0.92 | 0.52 | 0.72 | 0.58 | 0.58 | – | 0.94 | – | – | – | 0.5 | 0.95 | – | 0.15 | -0.85 | – | 0.55 | Growth Rate (Fibroblast; 0 h, replicate number 2): 0.79; Growth Rate (Fibroblast; 24 h, replicate number 1): 0.85; Growth Rate (HEK-293T; 6 h, replicate number 1): 0.43
